The values that follow come from patent US7297704B2, “Cycloalkyfused indole, benzothiophene, benzofuran and idene derivatives” (Wyeth, priority 2005, dated 2007).

By melting point is commonly meant the temperature of the solid-liquid transition. The IC50 is the midpoint of a concentration-inhibition curve. What is called Ki is a dissociation constant, usually derived from enzyme kinetics or from competition with a known ligand.

Data set [1] has as its target T1, serotonin transporter (Rattus norvegicus, UniProt P31652).
T1 construct: frontal cortical membranes prepared from male S.D. rats; from tissue; host or cells: rat frontal cortex membranes (male Sprague-Dawley)
In words: 3H-paroxetine binding to the serotonin transporter, rat frontal cortical membranes. To be noted: values printed in parentheses, 3H-paroxetine 0.1 nM, read-out: rb-5-HH-T, (IC50). As to the method: A protocol similar to that used by Cheetham et al. (Neuropharmacol. 32:737, 1993) was used to determine the affinity of compounds for the serotonin transporter. Briefly, frontal cortical membranes prepared from male S.D. rats were incubated with ^3H-paroxetine (0.1 nM) for 60 min at 25° C. All tubes also contained either vehicle, test compound (one to eight concentrations), or a saturating concentration of fluoxetine (10 μM) to define […]. All reactions are terminated by the addition of ice cold Tris buffer followed by rapid filtration using a Tom Tech filtration device to separate bound from free ^3H-paroxetine. Bound radioactivity was quantitated using a Wallac 1205 Beta Plate® counter. Nonlinear regression analysis was used to determine IC50 values which were converted to Ki values using the method of Cheng and Prusoff (Biochem. Pharmacol. 22: 3099, 1973); […].

Data set [2] has as its target T2, Human 5-HT1A Receptor (Homo sapiens, UniProt P08908).
T2 construct: expressed in transfected cells; host or cells: CHO cells
T2 sequence (P08908 1-422): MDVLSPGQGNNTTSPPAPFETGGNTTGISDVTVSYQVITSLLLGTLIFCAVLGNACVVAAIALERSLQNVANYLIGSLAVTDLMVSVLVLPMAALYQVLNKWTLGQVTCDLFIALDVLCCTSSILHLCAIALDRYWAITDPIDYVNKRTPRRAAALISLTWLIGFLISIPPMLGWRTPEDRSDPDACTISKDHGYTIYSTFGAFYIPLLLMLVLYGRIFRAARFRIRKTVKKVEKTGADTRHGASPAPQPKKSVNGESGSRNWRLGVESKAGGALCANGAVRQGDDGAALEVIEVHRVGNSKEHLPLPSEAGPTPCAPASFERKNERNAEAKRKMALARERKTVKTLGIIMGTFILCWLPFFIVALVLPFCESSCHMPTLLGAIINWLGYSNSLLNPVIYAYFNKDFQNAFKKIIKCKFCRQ
In words: cAMP RIA in human 5-HT1A receptor cell line. Type of data set: cell-based. As to conditions: superscript b; reversal of agonist activity, CHO cells; read-out: c-AMP, (IC50)^b. As to the method:
Stably transfected CHO cells were grown in DMEM containing 10% heat inactivated FBS and non-essential amino acids. The cells were plated at a density of 10^6 cells per well in a 96 well plate and incubated for 2 days in a CO2 incubator. On the second day, the media was replaced with 0.1 ml Krebs and incubated 15 minutes at 37° C. The media was then replaced with Krebs buffer containing 500 uM IBMX and incubated 5 minutes at 37° C. Wells were treated with forskolin (1 uM final conc) followed immediately by test compound (0.1 and 1 uM for initial screen) and incubated for an additional 10 min at 37° C. Reaction was terminated by removal of the media and addition of 0.5 ml ice cold assay buffer (supplied in RIA kit). Plates are stored at −20° C. prior to assessment of cAMP formation by RIA. Compounds shown to have no agonist activities were further analyzed for ability to reverse agonist activity. In separate experiments, 6 concentrations of antagonist were preincubated for 20 min prior to the addition of agonist and forskolin. Cells were harvested as described. The cAMP kit is supplied by Amersham and the RIA is performed as per kit instructions. In the initial screen, percent inhibition of forskolin stimulated cAMP was measured. In the secondary screen, IC50 of reversal of agonist activity was measured. Calculations of IC50 were performed by GraphPad Prism. Serotonin, BMY 7378, Buspirone, and 8-OH-DPAT were used as reference compounds.

In data set [3] the target is T2, Human 5-HT1A Receptor. In words: 8-OH-DPAT binding, human 5-HT1A receptor cell line. To be noted: stably transfected CHO cells, 8-OH-DPAT ligand 1.5 nM; read-out: h5-HT1A Affinity, Ki. As to the method:
Stably transfected CHO cells were grown in DMEM containing 10% heat inactivated FBS and non-essential amino acids. Cells were scraped off the plate, transferred to centrifuge tubes, and washed twice by centrifugation (2000 rpm for 10 min., 4° C.) in buffer (50 mM Tris, pH 7.5). The resulting pellets were aliquoted and placed at −80° C. On day of assay, the cells were thawed on ice, and resuspended in buffer. The binding assay was performed in a 96 well microtiter plate in a total volume of […]. Non-specific binding was determined in the presence of […] 5HT; final ligand concentration was 1.5 nM. Following a 30 min. incubation at room temperature, the reaction was terminated by the addition of ice cold buffer and rapid filtration through a GF/B filter presoaked for 30 min. in 0.5% PEI. Compounds were initially tested in a single point assay to determine percent inhibition at […]. Subsequently, Ki values were determined for compounds defined to be active. Percent inhibition Ki was determined by RFComp (Lundon Software), with Serotonin 8-OH-DPAT as the reference compounds.

For data set [4], the target named is h-5-HT-T (Homo sapiens, UniProt P31645). In words: h-5-HT-T IC50 (Table 1, no method described).
h-5-HT-T, sequence (P31645 whole entry): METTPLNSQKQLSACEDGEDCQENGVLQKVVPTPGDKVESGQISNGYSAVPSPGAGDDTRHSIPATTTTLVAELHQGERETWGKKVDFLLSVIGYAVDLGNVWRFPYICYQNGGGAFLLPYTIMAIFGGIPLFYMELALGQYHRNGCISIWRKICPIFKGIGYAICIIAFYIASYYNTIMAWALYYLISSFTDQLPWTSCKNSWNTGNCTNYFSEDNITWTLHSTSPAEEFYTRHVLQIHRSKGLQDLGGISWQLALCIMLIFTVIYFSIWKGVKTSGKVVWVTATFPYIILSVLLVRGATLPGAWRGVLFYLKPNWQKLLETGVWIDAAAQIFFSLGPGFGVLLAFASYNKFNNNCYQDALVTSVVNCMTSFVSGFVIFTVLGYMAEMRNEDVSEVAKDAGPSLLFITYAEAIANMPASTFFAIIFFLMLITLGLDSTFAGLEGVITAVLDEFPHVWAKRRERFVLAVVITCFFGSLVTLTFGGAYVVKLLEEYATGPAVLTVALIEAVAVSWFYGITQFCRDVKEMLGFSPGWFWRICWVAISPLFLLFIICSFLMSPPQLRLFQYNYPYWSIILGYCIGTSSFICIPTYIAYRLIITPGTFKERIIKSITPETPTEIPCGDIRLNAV

Counter-ions that a name gives are not always drawn.

T1 sequence (P31652 whole entry): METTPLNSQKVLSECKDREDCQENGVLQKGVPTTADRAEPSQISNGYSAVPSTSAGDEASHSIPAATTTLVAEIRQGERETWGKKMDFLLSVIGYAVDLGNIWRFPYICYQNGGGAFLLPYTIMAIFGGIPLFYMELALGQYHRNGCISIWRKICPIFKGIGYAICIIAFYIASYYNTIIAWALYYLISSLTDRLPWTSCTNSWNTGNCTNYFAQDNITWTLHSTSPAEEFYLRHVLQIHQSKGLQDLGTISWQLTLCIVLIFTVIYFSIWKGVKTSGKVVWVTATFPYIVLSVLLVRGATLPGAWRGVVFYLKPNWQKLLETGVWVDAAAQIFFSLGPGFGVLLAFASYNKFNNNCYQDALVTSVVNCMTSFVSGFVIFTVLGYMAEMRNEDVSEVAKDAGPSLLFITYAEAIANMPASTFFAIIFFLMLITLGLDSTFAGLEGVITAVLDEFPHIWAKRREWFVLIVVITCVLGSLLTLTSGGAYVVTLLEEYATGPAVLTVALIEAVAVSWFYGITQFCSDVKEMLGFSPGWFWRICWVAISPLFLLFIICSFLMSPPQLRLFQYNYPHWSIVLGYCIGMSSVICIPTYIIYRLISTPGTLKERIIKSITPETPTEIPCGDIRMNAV

`Cc1ccc2c3c(ccc2n1)OC[C@H](CNCC1CCc2[nH]c4ccc(F)cc4c2C1)O3` (mixture of isomers) [Example 2, N-[(6-fluoro-2,3,4,9-tetrahydro-1H-carbazol-3-yl)methyl]-N-{[(2S)-8-methyl-2,3-dihydro[1,4]dioxino[2,3-f]quinolin-2-yl]methyl}amine]: the melting point is 89 to 97 °C. Besides, in data set [1], the IC50 was 5.26 nM. Also, the IC50 in data set [2] is 7.2 nM. For the same compound, in data set [3], the Ki was found to be 1.36 nM.

For the compound `Cc1ccc2c3c(ccc2n1)OC[C@H](CNCC1CCc2c(c4cc(F)ccc4n2C)C1)O3` (mixture of isomers) [Example 6, N-[(6-fluoro-9-methyl-2,3,4,9-tetrahydro-1H-carbazol-3-yl)methyl]-N-{[(2S)-8-methyl-2,3-dihydro[1,4]dioxino[2,3-f]quinolin-2-yl]methyl}amine], the melting point is 57 to 62 °C. Also, the IC50 in data set [1] was 9.01 nM. Besides, the concentration for half-maximal inhibition (IC50) in data set [2] was 532 nM. Further, the inhibition constant Ki in data set [3] was determined as 3.65 nM.

Take `Cc1ccc2c3c(ccc2n1)OC[C@H](CNCC1CCc2c([nH]c4ccc(F)cc24)C1)O3` (stereo partly drawn) [Example 1, N-[(6-fluoro-2,3,4,9-tetrahydro-1H-carbazol-2-yl)methyl]-N-{[(2S)-8-methyl-2,3-dihydro[1,4]dioxino[2,3-f]quinolin-2-yl]methyl}amine]: the melting point was in the range of 92 to 96 °C. Further, in data set [1], the IC50 came out at 49.4 nM. Further, in data set [2], the IC50 came out at 15.2 nM. In addition, the inhibition constant (Ki) in data set [3] came to 2.23 nM.

In the case of `Cc1ccc2c3c(ccc2n1)OC[C@H](CNC[C@@H]1CCc2[nH]c4c(F)cc(F)cc4c2C1)O3.Cl.Cl` [Example 9, N-{[(3R)-6,8-difluoro-2,3,4,9-tetrahydro-1H-carbazol-3-yl]methyl}-N-{[(2S)-8-methyl-2,3-dihydro[1,4]dioxino[2,3-f]quinolin-2-yl]methyl}amine dihydrochloride], the melting point was 260 to 272 °C. In data set [1], the IC50 was determined as 57.6 nM. For the same compound, the IC50 in data set [2] was 105 nM. Also, the Ki in data set [3] came to 3.7 nM.

Turning to `Cc1ccc2c3c(ccc2n1)OC[C@H](CNC[C@H]1CCc2[nH]c4c(F)cc(F)cc4c2C1)O3.Cl.Cl` [Example 10, N-{[(3S)-6,8-difluoro-2,3,4,9-tetrahydro-1H-carbazol-3-yl]methyl}-N-{[(2S)-8-methyl-2,3-dihydro[1,4]dioxino[2,3-f]quinolin-2-yl]methyl}amine dihydrochloride], the melting point is 267 to 275 °C. Further, the IC50 in data set [1] amounted to 11.3 nM. In addition, the half-inhibitory concentration (IC50) in data set [2] was found to be 249 nM. Also, the Ki in data set [3] is 4.95 nM.

For the compound `Cc1ccc2c3c(ccc2n1)OC[C@H](CNCC1CCc2[nH]c4cccc(F)c4c2C1)O3.Cl.Cl` (stereo partly drawn) [Example 11, [(5-fluoro-2,3,4,9-tetrahydro-1H-carbazol-3-yl)methyl]{[(2S)-8-methyl-2,3-dihydro[1,4]dioxino[2,3-f]quinolin-2-yl]methyl}amine dihydrochloride], the melting point fell in the range of 220 to 230 °C. The IC50 in data set [1] came out at 124 nM. In addition, the concentration for half-maximal inhibition (IC50) in data set [2] came out at 49.2 nM. The inhibition constant (Ki) in data set [3] is 16.7 nM.

The compound `Cc1ccc2c3c(ccc2n1)OC[C@H](CNCC1CCc2c(c4c(F)cccc4n2C)C1)O3` (stereo partly drawn) [Example 12, N-[(5-fluoro-9-methyl-2,3,4,9-tetrahydro-1H-carbazol-3-yl)methyl]-N-{[(2S)-8-methyl-2,3-dihydro[1,4]dioxino[2,3-f]quinolin-2-yl]methyl}amine] yielded a melting point of 84 to 90 °C. In addition, in data set [1], the IC50 worked out at 180 nM. The half-maximal inhibitory concentration (IC50) in data set [2] is 26.7 nM. Also, in data set [3], the Ki worked out at 0.54 nM.

In turn, `Cc1ccc2c3c(ccc2n1)OC[C@H](CNCC1CCc2[nH]c4cc(F)ccc4c2C1)O3` (stereo partly drawn) [Example 13, N-[(7-fluoro-2,3,4,9-tetrahydro-1H-carbazol-3-yl)methyl]-N-{[(2S)-8-methyl-2,3-dihydro[1,4]dioxino[2,3-f]quinolin-2-yl]methyl}amine] showed a melting point of 89 to 97 °C. The IC50 in data set [1] was 120 nM. Further, the IC50 in data set [2] is 22.1 nM. Also, the inhibition constant Ki in data set [3] was determined as 1.8 nM.

`Cc1ccc2c3c(ccc2n1)OC[C@H](CNC[C@H]1CCc2[nH]c4ccc(C#N)cc4c2C1)O3.Cl.Cl` [Example 14, (3S)-3-[({[(2S)-8-methyl-2,3-dihydro[1,4]dioxino[2,3-f]quinolin-2-yl]methyl}amino)methyl]-2,3,4,9-tetrahydro-1H-carbazole-6-carbonitrile dihydrochloride] showed a melting point of 236 to 241 °C. The IC50 in data set [1] was determined as 3.61 nM. Besides, in data set [2], the IC50 was found to be 79.5 nM. Further, the Ki in data set [3] came out at 13.6 nM.

`Cc1ccc2c3c(ccc2n1)OC[C@H](CNC[C@@H]1CCc2[nH]c4ccc(C#N)cc4c2C1)O3.Cl.Cl` [Example 15, (3R)-3-[({[(2S)-8-methyl-2,3-dihydro[1,4]dioxino[2,3-f]quinolin-2-yl]methyl}amino)methyl]-2,3,4,9-tetrahydro-1H-carbazole-6-carbonitrile dihydrochloride]: the melting point fell in the range of 254 to 258 °C. In addition, in data set [1], the IC50 came out at 2.25 nM. Moreover, the IC50 in data set [2] amounted to 888 nM. For the same compound, the Ki in data set [3] amounted to 15 nM.

With `Cc1ccc2c3c(ccc2n1)OC[C@H](CN(C[C@H]1CCc2[nH]c4ccc(F)cc4c2C1)C(C)C)O3` [Example 61, N-{[(3S)-6-Fluoro-2,3,4,9-tetrahydro-1H-carbazol-3-yl]methyl}-N-{[(2S)-8-methyl-2,3-dihydro[1,4]dioxino[2,3-f]quinolin-2-yl]methyl}propan-2-amine monohydrochloride monohydrate], the IC50 in data set [4] turned out to be 1700 ± 46 nM.

Regarding `Cc1ccc2c3c(ccc2n1)OCC(CN(CC1CCc2c(c4cc(F)ccc4n2C)C1)C(C)C)O3` [Example 65, N-[(6-Fluoro-9-methyl-2,3,4,9-tetrahydro-1H-carbazol-3-yl)methyl]-N-([(2S)-8-methyl-2,3-dihydro[1,4]dioxino[2,3-f]quinolin-2-yl]methylpropan-2-aminemonohydrochloride monohydrate], the IC50 in data set [4] came to 403 ± 29 nM.

`Cc1ccc2c3c(ccc2n1)OC[C@H](CN(CC1CCc2c(c4cc(F)ccc4n2C)C1)C1CCCCC1)O3` (stereo partly drawn) [Example 67, N-[(6-Fluoro-9-methyl-2,3,4,9-tetrahydro-1H-carbazol-3-yl)methyl]-N-{[(2S)-8-methyl-2,3-dihydro[1,4]dioxino[2,3-f]quinolin-2-yl]methyl}cyclohexanamine monohydrochloride monohydrate] yielded an IC50 in data set [4] of 505 ± 9.55 nM.
